± gives the standard deviation of the averaged measurements.
Columns and labels:
Conditions in all cases: 72 h
[1] = system: LAMA-84; assay: cell viability (% survival relative to DMSO control, bortezomib = 0%); higher = less cytotoxic
Method in brief: (§1)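 Seeding density for each of the 10 AML and 5 CML cell lines was titrated to the linear growth range. Cells went into 384-well plates pre-printed in duplicate with compounds at 1, 10, 100, 1000 or 10000 nM and were held for 72 h at 37 °C with 5% CO2. CellTiter-Glo luminescence then provided the readout. Percent survival is expressed relative to vehicle at 100% and a 10 µM positive control at 0%, averaged over duplicates.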

[2] = system: NOMO-1; assay: as above
Method in brief: as §1

[3] = system: SHI-1; assay: as above
Method in brief: as §1

[4] = system: KCL-22; assay: as above
Method in brief: as §1

[5] = system: HEL; assay: as above
Method in brief: as §1

[6] = system: KU-812; assay: as above
Method in brief: as §1

[7] = system: MOLM-13; assay: as above
Method in brief: as §1

[8] = system: Mono-Mac-6; assay: as above
Method in brief: as §1

[9] = system: THP-1; assay: as above
Method in brief: as §1

[10] = system: KG-1; assay: as above
Method in brief: as §1

[11] = system: K-562; assay: as above
Method in brief: as §1

[12] = system: ML-2; assay: as above
Method in brief: as §1

[13] = system: BV-173; assay: as above
Method in brief: as §1

[14] = system: HL-60; assay: as above
Method in brief: as §1

[15] = system: MV4-11; assay: as above
Method in brief: as §1

[16] = system: MV4-11
Method in brief: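 Fifteen myeloid leukaemia lines were incubated for 72 h at 37 °C with 5% CO2 across five tenfold doses from 1 to 10,000 nM, in duplicate. ATP luminescence was normalised to vehicle and to a positive control at 10 µM and fitted with a four-parameter log-logistic model. The IC50 came from these dose–response fits.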

[17] = system: HL-60; assay: cell viability (% survival relative to DMSO control); higher = less cytotoxic
Method in brief: (§2)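 HL-60 cells in RPMI 1640 with 10% FBS were rescreened against the full library on 384-well plates at five tenfold concentrations, 1–10,000 nM, in duplicate. Each screen was run with DMSO or 100 nM of one of three metabolic inhibitors, for 72 h at 37 °C, 5% CO2. Viability was read by CellTiter-Glo and normalised to DMSO and 10 μM proteasome-inhibitor wells. Where given, area under the curve came from four-parameter log-logistic fits (drc, PharmacoGx).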

[18] = system: HL-60; assay: area under dose-response curve (viability, 1 nM-10 uM) (fraction (0-1)); higher = more sensitive
Method in brief: as §2

O=c1oc2c(cc1O)oc(=O)c1cc(O)c(O)c(O)c12 [Galloflavin]
Conditions	area under dose-response curve, co-treatment: AZD3965 100 nM	area under dose-response curve, co-treatment: DMSO vehicle	area under dose-response curve, co-treatment: GSK2194069 100 nM	area under dose-response curve, co-treatment: pictilisib 100 nM	cell viability, 1 nM [%]	cell viability, 10 nM [%]	cell viability, 100 nM [%]	cell viability, 1000 nM [%]	cell viability, 10000 nM [%]
[1]	–	–	–	–	93.7	95	106	98.2	99.4
[2]	–	–	–	–	91.8	97.7	99.1	102	106
[3]	–	–	–	–	108	105	106	112	104
[4]	–	–	–	–	103	95.3	102	104	112
[5]	–	–	–	–	99.7	98.6	122	106	107
[6]	–	–	–	–	94.8	96	90.7	96.6	105
[7]	–	–	–	–	99.3	120	92	115	119
[8]	–	–	–	–	92.9	99.7	113	113	100
[9]	–	–	–	–	98	99.3	101	99.4	108
[10]	–	–	–	–	92.7	97.2	114	115	100
[11]	–	–	–	–	107	105	100	116	112
[12]	–	–	–	–	101	95	113	111	115
[13]	–	–	–	–	91	97.5	99.4	108	118
[14]	–	–	–	–	108	101	114	180	186
[15]	–	–	–	–	100	102	94.5	106	102
[18]	< 0.0301	< 0.0301	< 0.0301	< 0.0301	–	–	–	–	–

Conditions	IC50 (cell viability) [µM]
[16]	> 10

cell viability [%], [17]
Conditions	0.001 µM	0.01 µM	0.1 µM	1 µM	10 µM
co-treatment: AZD3965 100 nM	81.9 ± 2.5	97.2 ± 2.5	110 ± 11	112 ± 12	99.6 ± 2.8
co-treatment: DMSO vehicle	102 ± 1.5	84.8 ± 23	104 ± 1.4	109 ± 4.7	99.28 ± 0.39
co-treatment: GSK2194069 100 nM	92.6 ± 11	84.7 ± 13	104 ± 3.8	105 ± 8	96.52 ± 0.27
co-treatment: pictilisib 100 nM	109 ± 8.3	93.7 ± 1.9	94.13 ± 0.21	107 ± 11	98.54 ± 0.6

N[C@@H](CCC(=O)N[C@@H](CS)C(=O)NCC(=O)O)C(=O)O [Glutathione]
Conditions	area under dose-response curve, co-treatment: AZD3965 100 nM	area under dose-response curve, co-treatment: DMSO vehicle	area under dose-response curve, co-treatment: GSK2194069 100 nM	area under dose-response curve, co-treatment: pictilisib 100 nM	cell viability, 1 nM [%]	cell viability, 10 nM [%]	cell viability, 100 nM [%]	cell viability, 1000 nM [%]	cell viability, 10000 nM [%]
[1]	–	–	–	–	100	98.1	97.6	98.1	104
[2]	–	–	–	–	98.9	105	91.1	94.2	106
[3]	–	–	–	–	99.3	106	106	97.5	95.3
[4]	–	–	–	–	101	110	91.4	95.6	107
[5]	–	–	–	–	106	95.7	96.1	94.2	111
[6]	–	–	–	–	105	110	108	96	96.5
[7]	–	–	–	–	111	114	91.4	92.5	92.1
[8]	–	–	–	–	96.2	89.5	84.9	103	89.9
[9]	–	–	–	–	100	102	95.4	105	105
[10]	–	–	–	–	106	101	111	95.7	110
[11]	–	–	–	–	94.4	106	92.2	93.6	98.7
[12]	–	–	–	–	93.2	106	103	93	104
[13]	–	–	–	–	102	99.4	94.4	101	91.9
[14]	–	–	–	–	77.8	94.8	98.7	70.5	105
[15]	–	–	–	–	106	99.2	107	80.9	106
[18]	< 0.0301	< 0.0301	< 0.0301	< 0.0301	–	–	–	–	–

Conditions	IC50 (cell viability) [µM]
[16]	> 10

cell viability [%], [17]
Conditions	0.001 µM	0.01 µM	0.1 µM	1 µM	10 µM
co-treatment: AZD3965 100 nM	99.7 ± 0.66	98.74 ± 0.26	99.1 ± 1.7	102 ± 6.2	99.8 ± 1.6
co-treatment: DMSO vehicle	101 ± 1.5	99.78 ± 0.85	99.69 ± 0.58	98.63 ± 0.24	102.2 ± 0.32
co-treatment: GSK2194069 100 nM	96.2 ± 3.6	100.3 ± 0.86	95.1 ± 7.2	101 ± 11	100.27 ± 0.053
co-treatment: pictilisib 100 nM	96.6 ± 2.5	96.4 ± 9.4	86.3 ± 15	96.3 ± 9.8	106 ± 4.5

Cl.OC[C@H]1NC[C@H](O)[C@@H](O)[C@H]1O [Migalastat]
Conditions	area under dose-response curve, co-treatment: AZD3965 100 nM	area under dose-response curve, co-treatment: DMSO vehicle	area under dose-response curve, co-treatment: GSK2194069 100 nM	area under dose-response curve, co-treatment: pictilisib 100 nM	cell viability, 1 nM [%]	cell viability, 10 nM [%]	cell viability, 100 nM [%]	cell viability, 1000 nM [%]	cell viability, 10000 nM [%]
[1]	–	–	–	–	106	96.8	103	99	92.7
[2]	–	–	–	–	101	103	104	100	94.8
[3]	–	–	–	–	113	96.2	109	102	107
[4]	–	–	–	–	95.6	90.2	101	102	100
[5]	–	–	–	–	99.2	99.3	101	104	101
[6]	–	–	–	–	92.1	92.3	99.4	98.1	98.5
[7]	–	–	–	–	83.6	89.2	104	116	101
[8]	–	–	–	–	102	87.4	104	98.3	103
[9]	–	–	–	–	102	99.1	104	98.7	90.9
[10]	–	–	–	–	104	98.9	107	99.6	96.3
[11]	–	–	–	–	109	94.7	107	101	99.1
[12]	–	–	–	–	98.5	97.1	111	103	100
[13]	–	–	–	–	97.1	102	113	105	87.6
[14]	–	–	–	–	92.9	86.1	113	106	106
[15]	–	–	–	–	117	95.7	100	104	97.2
[18]	< 0.0301	< 0.0301	< 0.0301	< 0.0301	–	–	–	–	–

Conditions	IC50 (cell viability) [µM]
[16]	> 10

cell viability [%], [17]
Conditions	0.001 µM	0.01 µM	0.1 µM	1 µM	10 µM
co-treatment: AZD3965 100 nM	106 ± 1.8	108 ± 2.8	102.1 ± 0.12	106 ± 2.9	102 ± 6.1
co-treatment: DMSO vehicle	103 ± 1.2	103 ± 8.1	96.5 ± 2.1	100 ± 1.6	95.4 ± 4.5
co-treatment: GSK2194069 100 nM	106 ± 1.1	110 ± 3.4	104 ± 6	103 ± 8.2	94.79 ± 0.12
co-treatment: pictilisib 100 nM	102 ± 4.4	112 ± 3.5	99.4 ± 5.2	106 ± 5.2	94.1 ± 11

— the supplement of paper PMC8671470
